# Experimental data: PMC10682194, “Structural insights into ligand recognition and selectivity of the human hydroxycarboxylic acid receptor HCAR2” (Cell Discovery, 2023)
# Read-outs that look alike come from different tables or passages of the source.
# Assays:
# [1] = biological target: HCAR3 (Homo sapiens, UniProt P49019); settings: HCAR2 natural ligands on HCAR3; cited from earlier work
# [2] = test system: HCAR2; parameters: method as in PMID 19349687; settings: HCAR2 agonist; cited from earlier work
# [3] = test system: HCAR2; settings: cited from earlier work
# [4] = dog, compared to niacin; cited from earlier work
# [5] = rat, compared to niacin; cited from earlier work
# [6] = test system: HCAR3 mutants at positions 86, 91, 103, 107, 176, and 178; experiment: Gi/o-cAMP assay, reverse mutations in HCAR3; format: cell-based, human; settings: reverse mutations of the six residues in HCAR3
# Experimental: (§1) The Gi/o-cAMP assay was performed as follows. […] Data were analyzed with GraphPad Prism 9.0. The experiments were performed in triplicate.
# [7] = biological target: T1, wild-type HCAR2 (Homo sapiens, UniProt Q8TDS4); experiment: SPR binding affinity, wild-type receptor
# T1 construct: expressed in transfected cells; host or cells: HEK293 cells (ATCC CRL-1573)
# T1 sequence (Q8TDS4 whole entry): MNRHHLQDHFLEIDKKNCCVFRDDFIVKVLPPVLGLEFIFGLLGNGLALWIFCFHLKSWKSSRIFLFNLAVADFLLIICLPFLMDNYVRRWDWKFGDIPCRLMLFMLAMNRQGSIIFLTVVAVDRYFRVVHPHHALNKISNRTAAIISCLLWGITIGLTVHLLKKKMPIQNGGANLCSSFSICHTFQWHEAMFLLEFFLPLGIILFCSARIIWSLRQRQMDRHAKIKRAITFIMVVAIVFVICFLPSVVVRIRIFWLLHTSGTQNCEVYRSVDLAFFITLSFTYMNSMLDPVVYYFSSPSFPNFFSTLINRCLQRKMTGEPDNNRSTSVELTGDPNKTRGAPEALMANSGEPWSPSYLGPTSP
# Experimental: Varying concentrations of agonist diluted in running buffer were injected as analytes for 100 s, as the period of association. Subsequently, the running buffer was alternatively perfused over the chip to allow the bound agonist to undergo a 50 s period of disassociation. Sensorgrams were recorded in real-time and analyzed in the Biacore X100 system for the calculation of binding affinity (KD).
# [8] = test system: HCAR2 mutants at positions 86, 91, 103, 107, 176, and 178; experiment: Gi/o-cAMP assay, HCAR2 residues mutated to the allelic residues in HCAR3; format: cell-based, human; settings: six HCAR2 residues mutated to HCAR3 residues
# Experimental: as §1
# Sequence of HCAR3 (P49019 whole entry): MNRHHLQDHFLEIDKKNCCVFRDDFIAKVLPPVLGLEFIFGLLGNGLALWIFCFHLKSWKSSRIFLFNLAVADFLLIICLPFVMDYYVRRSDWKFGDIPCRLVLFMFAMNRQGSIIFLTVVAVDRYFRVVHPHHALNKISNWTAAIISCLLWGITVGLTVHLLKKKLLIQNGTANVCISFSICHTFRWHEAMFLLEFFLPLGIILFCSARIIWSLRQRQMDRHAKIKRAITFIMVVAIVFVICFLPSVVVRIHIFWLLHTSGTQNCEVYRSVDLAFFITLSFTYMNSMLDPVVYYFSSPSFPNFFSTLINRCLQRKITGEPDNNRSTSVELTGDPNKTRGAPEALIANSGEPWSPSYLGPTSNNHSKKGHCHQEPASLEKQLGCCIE
structure (smiles),measurement,setting,value
CCCC(=O)O [butyrate],activity toward HCAR3,[1],no activity
C1Cc2[nH]nc(-c3nn[nH]n3)c2C1 [MK-0354],β-arrestin activation,[2],weak
CCCCCC(O)CC(=O)O (stereo not drawn) [3-hydroxyoctanoic acid],activation of HCAR2,[3]; natural ligand of HCAR3 tested on HCAR2,not activated
"CC(O)CC(=O)O (stereo not drawn) [β-OHB, β-hydroxybutyrate]",activity toward HCAR3,[1],no activity
same,potency for HCAR2 relative to butyrate,[3]; endogenous ligands,higher potency
CC(C)(Cc1nc(-c2ccc(O)cn2)no1)C(=O)NC1=C(C(=O)O)CCCC1 [MK-6892],flushing effect,[4],significantly relieved
same,flushing effect,[5],significantly relieved
Cc1cnc(C(=O)O)c[n+]1[O-] [acipimox],agonistic activity compared to wild-type HCAR3,[6],increased
same,Kd,[7],0.429 µM
same,effect of mutations on agonist activity in HCAR2,[8],markedly reduced
same,EC50,[3]; agonist of HCAR2,2.6 to 6 µM
NC(=O)c1cccnc1 [nicotinamide],activity toward HCAR2,[3]; carboxyl group of niacin replaced with an amide group,no longer active
